This is an account of results in patent publication US4188387A, “Amino-aryl 1,24-triazines useful in the treatment of diverse pain” (priority 1977, dated 1980).

The nature of one data set: in vivo. To be noted: mouse. How it is done: The toxicity study was carried out on the conventional mouse, weighing about 20 g.
The substances were administered orally and intraperitoneally.
The LD50 was calculated in accordance with the method of L. C. MILLER and M. L. TAINTER, Proc. Soc. exper.

A short description of a further data set: Solubility. To be noted: solvents named in the value. The class given is physicochemical.
A short description of data set [1]: Analgesic activity according to […] et al. (phenyl benzoquinone injection). Type of data set: in vivo. To be noted: oral, 30 minutes before the injection of phenyl benzoquinone. The method, then:
The compounds are administered orally 30 minutes before the injection of phenyl benzoquinone.

The subject of another data set is dental pulp. The data set can be described thus: Electric stimulation of dental pulp in rabbits (J. CHEYMOL et al.). Type of data set: in vivo.
Data set [2] is described as follows: Ulcerogenic effect (criteria of PFEIFER and LEWALDOWFKI). Type of data set: in vivo. To be noted: criteria of C. J. PFEIFER and L. G. LEWALDOWFKI
The text has this: J. PFEIFER and L. G. LEWALDOWFKI (Arch. Int. Pharmacodyn. 1971, 190, 5-13).

The mark [3] stands for this setting: ip, intraperitoneal, read-out: LD50 intraperitoneally.

“Also recorded” adds a separate entry of the source. Read-outs that look alike come from different tables or passages of the source.

For orientation: LD50 means the dose expected to kill half of the subjects tested. The ED50 is the midpoint of the dose-response relation. Lower therefore signals an effect at a small dose. As for `CN(C)c1ccc(-c2nc(=O)n(CCN3CCOCC3)nc2-c2ccc(N(C)C)cc2)cc1` [ST 767, 2 Ethyl morpholino 3-oxo 5,6 di(paradimethylaminophenyl) as. triazine], the 50% lethal dose (LD50) in “in vivo” (oral, read-out: LD50 orally) was more than 1000 mg/kg. Besides, the solubility entry in the data set “Solubility” is “Soluble in dilute aqueous acids, alcohol, methylene chloride, and chloroform; also recorded: Insoluble in water and dilute bases, benzene and ether”. For the same compound, in data set [1], the 50% effective dose (ED50) was in the range of 1 to 50 mg/kg.
Regarding `C=CCn1nc(-c2ccc(N(C)C)cc2)c(-c2ccc(N(C)C)cc2)nc1=O` [ST 776, 2-allyl 3-oxo 5,6-di(paradimethylaminophenyl) as triazine], the LD50 in the data set “in vivo” (oral, read-out: LD50 orally) was more than 1000 mg/kg. For the same compound, in “Solubility”, the solubility result is “Soluble in dilute aqueous acids, alcohol, benzene, methylene chloride, and chloroform; also recorded: Insoluble in water, bases, and ether”. For the same compound, in data set [1], the 50% effective dose (ED50) lay within 1 to 50 mg/kg. Also, the “analgesic activity in electric stimulation of dental pulp” value in the data set with dental pulp is on record as “confirmed”. In addition, the ulcerogenic effect result in data set [2] is “without ulcerogenic effect”.
In data set [1], `CC(=O)Oc1ccccc1C(=O)O` [Acetylsalicylic acid, reference compound] had an ED50 of 100 mg/kg.
For `CCN(CC)c1ccc(-c2nc(=O)n(C)nc2-c2ccc(N(CC)CC)cc2)cc1` [ST 771, 2-methyl 3-oxo 5,6-di(paradiethylaminophenyl) as triazine], in the data set “in vivo” (oral, read-out: LD50 orally), the LD50 was more than 1000 mg/kg. In addition, the solubility result in the data set “Solubility” was “Soluble in dilute aqueous acids, alcohol, methylene chloride, and chloroform; also recorded: Insoluble in water, dilute bases, benzene, ether”.
For `CN(C)c1ccc(-c2nc(=O)n(C)nc2-c2ccc(N(C)C)cc2)cc1` [ST 729, 2-methyl 3-oxo 5,6-di(paradimethylamino-phenyl) as triazine], the solubility entry in the data set “Solubility” is “insoluble in water, dilute bases, benzene, and ether; also recorded: Soluble in dilute acids, alcohol and methylene chloride”. In data set [1], this compound registered an ED50 of 1 mg/kg. In addition, in the data set with dental pulp, the “analgesic activity in electric stimulation of dental pulp” value was “confirmed”. Moreover, in data set [2], the ulcerogenic effect entry is given as “without ulcerogenic effect”.
On to `CN(C)c1ccc(-c2n[nH]c(=O)nc2-c2ccccc2Cl)cc1` [ST 745], for which the solubility entry in the data set “Solubility” is “Insoluble in water, benzene, and ether; also recorded: Soluble in dilute bases and acids, ethanol, and methylene chloride”.
For the compound `CN(C)c1ccc(-c2nn(C)c(=O)nc2-c2ccccc2Cl)cc1` [ST 746, 2-methyl 3-oxo 5(orthochlorophenyl) 6(paradimethylaminophenyl) as. triazine], the LD50 in the data set “in vivo” (setting [3]) was 300 mg/kg; in “in vivo” (oral, read-out: LD50 orally), 1000 mg/kg. For the same compound, in “Solubility”, the solubility result was “Insoluble in water, dilute bases and ether; also recorded: Soluble in methylene chloride, benzene, alcohol, chloroform and dilute acids”. The same compound had an ED50 in data set [1] of 100 mg/kg.
Turning to `CN(C)CCCn1nc(-c2ccc(N(C)C)cc2)c(-c2ccc(N(C)C)cc2)nc1=O` [ST 778], the median lethal dose (LD50) in the data set “in vivo” (oral, read-out: LD50 orally) was more than 1000 mg/kg. In addition, in “Solubility”, the solubility entry was “Soluble in dilute aqueous acids, alcohol, benzene, methylene chloride, and chloroform; also recorded: Insoluble in water, dilute bases and ether”. The 50% effective dose (ED50) in data set [1] was 1 to 50 mg/kg.
Regarding `CN(C)c1ccc(-c2n[nH]c(=O)nc2-c2ccc(N(C)C)cc2)cc1`, in “Solubility”, the solubility result was “Soluble in aqueous dilute bases and acids; also recorded: poorly soluble in alcohol, benzene, methylene chloride, chloroform; also recorded: Insoluble in ether”.
`CN(C)c1ccc(-c2nc(=S)n(C)nc2-c2ccc(N(C)C)cc2)cc1` [ST 811, 2-methyl 3-thione 5,6-di(paradimethylaminophenyl)as triazine]: the 50% lethal dose (LD50) in “in vivo” (oral, read-out: LD50 orally) was more than 1000 mg/kg. Besides, the solubility result in “Solubility” was “Soluble in aqueous dilute acids, alcohols, and methylene chloride; also recorded: Insoluble in water, aqueous bases, and ether”. Besides, in data set [1], the median effective dose (ED50) lay within 1 to 50 mg/kg.
As for `CCN(CC)c1ccc(-c2nnc(O)nc2-c2ccc(N(CC)CC)cc2)cc1` [ST 770, 3-oxo 5,6-di(paradiethylaminophenyl) as triazine], the solubility result in the data set “Solubility” was “Soluble in dilute acids and bases, alcohol, benzene, and methylene chloride”.
`O=C(OCC(O)CO)c1ccccc1Nc1ccnc2cc(Cl)ccc12` (stereo not drawn) [Glaphenine, reference compound] gave an ED50 in data set [1] of 36 mg/kg.
Consider `CCN(CC)CCn1nc(-c2ccc(N(C)C)cc2)c(-c2ccc(N(C)C)cc2)nc1=O` [ST 790, 2-diethylaminoethyl 3-oxo 5,6(paradimethylaminophenyl) as triazine], for which the 50% lethal dose (LD50) in “in vivo” (oral, read-out: LD50 orally) was more than 1000 mg/kg. The solubility result in the data set “Solubility” is “Soluble in dilute aqueous acids, alcohol, benzene, methylene chloride, and chloroform; also recorded: Insoluble in bases, water, and ether”. Further, the ED50 in data set [1] is 1 to 50 mg/kg.
With `CN(C)c1ccc(-c2nn(C)c(=O)nc2-c2ccc(Cl)cc2)cc1` [ST 761, 2-methyl 3-oxo 5(parachlorophenyl) 6(p-dimethylaminophenyl) as triazine], the 50% lethal dose (LD50) worked out at 400 mg/kg in “in vivo” (setting [3]) and 1500 mg/kg in the data set “in vivo” (oral, read-out: LD50 orally). The solubility entry in “Solubility” is “Soluble in dilute acids, CH2 Cl2, and chloroform; also recorded: Insoluble in water, dilute bases, and ether”. In data set [1], this compound displayed an ED50 of 4 mg/kg.
